Measured values reported in US20210260022A1, “SYNERGY FOR INCREASING ENERGY EXPENDITURE AND INSULIN SENSITIVITY” (The Board of Supervisors of Louisiana State University and …, priority 2018, published 2021).

Legend:
[1] = cell culture and animal studies; cited from earlier work
[2] = cited from earlier work
human adipocytes [3] = assay: mRNA expression (Taqman RT-PCR) in differentiated human adipocytes after 7 day treatment; format: cell-based
Experimental: Carotenoids tested were β-carotene (βCar), Lycopene (lyco) and lutein. […] In our preclinical lab at PBRC, human subcutaneous adipocyte cell cultures were treated with naringenin at a concentration of 10 μM for seven days. […] Differentiated human adipocytes were treated with 10 μM naringenin for 7 days. Gene expression was analyzed using Taqman RT-PCR and values are expressed as fold increase over untreated controls (n=5). […] Activated AMPK induces glucose consumption and fat oxidation in adipose tissue. Carotenoids are vitamin A precursors found in foods and their consumption can cause reduction in adiposity and insulin resistance in pediatric clinical trials (Canas et al., 2012; Canas et al., 2017). After ingestion, they are metabolized into retinoid ligands for retinoic acid receptors (RAR) and retinoic X receptors (RXR) which are localized in the cell nucleus. RXRs form heterodimers with PPARs in transcriptional complexes known to target genes for energy expenditure and fat oxidation (Bonet et al., 2015).

PPARγ = biological target: T1, PPARγ (Homo sapiens, UniProt P37231); settings: reporter gene assays; cited from earlier work
T1 sequence (P37231 1-505): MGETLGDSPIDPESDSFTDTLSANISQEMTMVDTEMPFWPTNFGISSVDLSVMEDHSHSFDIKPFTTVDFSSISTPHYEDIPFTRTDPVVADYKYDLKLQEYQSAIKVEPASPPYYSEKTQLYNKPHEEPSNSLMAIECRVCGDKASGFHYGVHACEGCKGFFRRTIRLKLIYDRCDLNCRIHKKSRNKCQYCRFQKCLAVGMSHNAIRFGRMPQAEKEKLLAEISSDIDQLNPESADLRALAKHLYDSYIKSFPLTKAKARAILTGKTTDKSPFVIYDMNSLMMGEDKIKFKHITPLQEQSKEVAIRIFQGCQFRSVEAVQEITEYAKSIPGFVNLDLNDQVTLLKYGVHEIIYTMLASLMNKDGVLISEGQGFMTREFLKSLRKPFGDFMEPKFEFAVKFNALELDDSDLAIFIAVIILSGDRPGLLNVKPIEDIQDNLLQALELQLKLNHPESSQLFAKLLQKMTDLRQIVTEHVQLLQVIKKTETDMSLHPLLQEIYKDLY

human adipocytes [4] = assay: Oxygen consumption rate in human adipocytes, Seahorse XF24; format: cell-based; settings: treated for 7d
Experimental: Referring to FIG. 3, oxygen consumption rate in human adipocytes after Naringenin treatment. Cells were treated for 7d and OCR was measured using a Seahorse XF24. Rosiglitizone and GW7647 (activators of PPARγ and PPARα) were included as positive controls.

human adipocytes [5] = assay: Western blotting of protein levels in treated human adipocytes; format: cell-based
Experimental: Referring to FIG. 2, human adipocyte cultures were treated with naringenin for 0, 3 or 7d. Total protein was isolated and analyzed by Western Blotting. […] TGX SDS-PAGE gels (7.5%TM, BioRad) were used to separate 50 μg of solubilized protein per sample. Following transfer, nitrocellulose membranes were probed overnight at 4° C. with primary monoclonal antibodies against adiponectin, NAMPT, and PPARγ (Santa Cruz), PGC-1α monoclonal (4C1.3, EMDmillipore) and β-Actin (A5316, Sigma). HRP-linked anti-rabbit (12-348, Sigma) and anti-mouse (A[…], Sigma) were used to detect specific antibody-antigen complexes. Proteins were visualized by chemiluminescence (Western Lightning Plus-ECL, PerkinElmer, Waltham, Mass.). Bands were quantified using ImageJ software and values shown are normalized to β-actin.

[6] = 150 mg three times a day for eight weeks (Murugesan et al., 2020); cited from earlier work
human adipocytes [7] = assay: qRT-PCR in human adipocytes (hADSC) treated two days with naringenin and inhibitors; format: cell-based; settings: for CPT1β mRNA expression compared to control / UCP1 mRNA expression compared to control: naringenin 30 μM (whole orange extract), two days
Experimental: Human white adipocytes were treated for 2d with naringenin in the presence of inhibitors of metabolic pathways to determine the mechanism of action for stimulating fat oxidation and thermogenic energy expenditure.
Naringenin increased UCP1 and CPT1β mRNA induction compared to control (p<0.001). PPARα and PPARγ inhibition reduced UCP1 and CPT1β mRNA expression (p<0.001). Each experiment was conducted with three biological replicates and four technical replicates.
The whole orange extract was dissolved in DMSO at 15 mM (based on 28% naringenin content) and added to cells at a dilution of 1:500 to achieve a final concentration of 30 μM. The inhibitors added to the naringenin-treated cells included: peroxisome proliferator-activated receptor alpha (PPARα) antagonist GW6471 and peroxisome proliferator-activated receptor gamma (PPARγ) antagonist GW9662 (Cayman Chemical, Ann Arbor, Mich.) at 10 μM concentration, protein kinase A (PKA) inhibitor H89 (Millipore Sigma, Burlington, Mass.) at 20 μM concentration, and protein kinase G (PKG) inhibitor […] (Biolog Life Science Institute, AXXORA, LLC, Farmingdale, N.Y.) at 50 μM concentration. GW6471 and GW9662 were dissolved in DMSO at 1000×, H89 was dissolved in PBS at 500×, and Rp-8-pCPT-cGMPS was dissolved in PBS at 100× prior to dilution in cell culture medium. Following a two-day treatment, the cells were harvested with Trizol reagent. RNeasy Mini Kit (Qiagen, Germantown, Md.) was used to isolate total RNA following manufacturer's protocol. The expression of UCP1, CPT1β, and GLUT4 was quantified with one-step reverse transcriptase PCR using the reverse PCR primer to prime cDNA synthesis as previously described.^6

ovariectomized mice = settings: cited from earlier work
cytochrome P450 enzymes = settings: in vivo studies in humans; cited from earlier work

O=C1C[C@@H](c2ccc(O)cc2)Oc2cc(O)cc(O)c21 [naringenin]
concentration needed to elicit a physiologic response [1]: 1-200 μm
serum concentrations of naringenin ([2]; after orange juice and fruit): < 1 μm
presence in serum ([2]; lowest dose of 150 mg): present in serum at concentrations sufficient to elicit a physiologic response
physiologically attainable concentration ([2]; pharmacokinetic studies in humans): 10 μM
adverse events ([2]; single ascending dose trial of whole orange extract): no adverse events were observed at any dose
expression of UCP1, GLUT4 and CPT-1 genes (human adipocytes [3]; 10 μM for seven days, human subcutaneous adipocytes): Significant increases
Adiponectin RNA expression and adiponectin protein levels (human adipocytes [3]; naringenin at 10 micromolar): went up
RNA and protein expression of uncoupling protein-1, adipose tissue glyceride lipase, carnitine palmitoyl transferase-1, glucose transporter-4, ChREBP alpha and beta (human adipocytes [3]; naringenin at 10 micromolar): increasing RNA and protein expression
activation of PPARγ (PPARγ): Direct activation
oxygen consumption rate: basal and maximal energy expenditure (human adipocytes [4]): significantly increases basal and maximal energy expenditure
oxygen consumption rate: basal and maximal energy expenditure (human adipocytes [4]; listed as Naringenin): increase in oxygen consumption
protein levels of UCP1, GLUT4, and ChREBP (human adipocytes [5]; 10 μM naringenin for 7 days): Corresponding increases
AMPK activation (phospho-AMPK) (human adipocytes [5]; naringenin 0, 3 or 7d): activates AMPK
body weight reduction [6]: 2.5%
CPT1β mRNA expression compared to control (human adipocytes [7]): more than three-fold
UCP1 mRNA expression compared to control (human adipocytes [7]): more than three-fold
CPT1β mRNA expression compared to control (human adipocytes [7]; listed as Naringenin): increased
UCP1 mRNA expression compared to control (human adipocytes [7]; listed as Naringenin): increased
GLUT4 mRNA expression (human adipocytes [7]; naringenin, two-day period): no increase
weight gain, glucose metabolism and muscle function (ovariectomized mice; ovariectomized mice fed a high fat diet): reversed the weight gain and improved glucose metabolism and muscle function
fasting glucose, insulin (and cholesterol) levels (ovariectomized mice; ovariectomized mice): improved fasting glucose, insulin and cholesterol levels
weight gain caused by ovariectomy (ovariectomized mice; ovariectomized mice): prevented the weight gain
inhibition of cytochrome P450 enzymes (cytochrome P450 enzymes): not the main inhibitory compound in grapefruit
